Laboratory results: US10053463B2 (Janssen Pharmaceutica NV, priority 2013, dated 2018)

Key:
[1] = target: T1, P2X7 (Homo sapiens (Human), UniProt Q99572); assay: P2X7 antagonism in human peripheral blood mononuclear cells (PBMCs), IL-1β release; type: cell-based; settings: Table 3 (additional runs); for remaining activity at 10 µM: P2X7, 10 μM compound, read-out: PBMC 10 μM (% control)
Method in brief: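 Ficoll-isolated human PBMCs primed with LPS (30 ng/ml) for 1 h, treated with compound for 30 min, then stimulated with 0.5 mM Bz-ATP for 1.5 h. Supernatant IL-1β measured by ELISA as % of LPS+Bz-ATP minus LPS-only release; IC50 from concentration–response of triplicate means.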

[2] = target: T1, P2X7; assay: Radioligand binding, human P2X7-1321N1 cell membranes, tracer tritiated A-804598; settings: Table 3 (additional runs)
Description: P2X7 Antagonism in Recombinant Human P2X7 Cells or Recombinant Rat P2X7 Cells: (a) Ca^2+ Flux and (b) Radioligand Binding
(b) Radioligand Binding: human or rat P2X7-1321N1 cells were collected and frozen @−80° C. On the day of the experiment, cell membrane preparations were made according to standard published methods. The total assay volume was 100 μl:10 μl compound (10×)+(b) 40 μl tracer (2.5×)+50 μl membrane (2×). The tracer used for the assay was tritiated A-804598. The compound can be prepared as described in the literature. (Donnelly-Roberts, D. Neuropharmacology 2008, 56 (1), 223-229.) Compounds, tracer and membranes were incubated for 1 hour @ 4° C. The assay was terminated by filtration (GF/B filters pre-soaked with 0.3% PEI) and washed with washing buffer (Tris-HCl 50 mM). The IC50 generated in the binding assay was corrected for tracer concentration and affinity of the tracer to derive at the affinity (K) of the test compounds. […] Data are analyzed and graphed on Graphpad Prism 5. For analysis, each concentration point is averaged from triplicate values and the averaged values are plotted on Graphpad Prism.

T1 sequence (Q99572 whole entry): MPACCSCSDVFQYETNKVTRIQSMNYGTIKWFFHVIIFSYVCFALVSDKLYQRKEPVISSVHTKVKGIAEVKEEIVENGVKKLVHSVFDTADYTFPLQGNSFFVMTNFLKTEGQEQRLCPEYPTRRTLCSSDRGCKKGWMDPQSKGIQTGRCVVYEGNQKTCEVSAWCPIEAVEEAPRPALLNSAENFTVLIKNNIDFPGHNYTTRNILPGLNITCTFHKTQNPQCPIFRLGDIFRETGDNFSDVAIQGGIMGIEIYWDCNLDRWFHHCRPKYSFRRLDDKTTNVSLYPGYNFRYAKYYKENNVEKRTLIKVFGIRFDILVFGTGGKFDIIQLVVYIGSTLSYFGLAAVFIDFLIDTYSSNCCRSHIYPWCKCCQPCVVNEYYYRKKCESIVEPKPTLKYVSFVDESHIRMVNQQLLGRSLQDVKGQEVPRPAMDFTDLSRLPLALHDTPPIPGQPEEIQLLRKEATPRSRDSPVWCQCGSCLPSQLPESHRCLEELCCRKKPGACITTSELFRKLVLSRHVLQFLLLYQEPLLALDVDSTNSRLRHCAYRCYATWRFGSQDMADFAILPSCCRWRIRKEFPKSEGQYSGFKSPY

remaining activity at 10 µM [1] [%] | Ki [2] [nM] | PBMC 1 μM (% control) ([1]; 1 μM compound) | Compound
-1.2 | 63.1 | – | Cc1ncsc1-c1nnc2n1C[C@H](C)n1c(-c3cccc(C(F)(F)F)c3Cl)nnc1-2 [Example 109, (5S)-3-[2-Chloro-3-(trifluoromethyl)phenyl]-5-methyl-8-(4-methyl-1,3-thiazol-5-yl)-5,6-dihydrobis[1,2,4]triazolo[4,3-a:3′,4′-c]pyrazine]
-1.4 | 63.1 | – | Cc1cnc(-c2nnc3n2C[C@H](C)n2c(-c4cccc(C(F)(F)F)c4Cl)nnc2-3)cn1 [Example 110, (5S)-3-[2-Chloro-3-(trifluoromethyl)phenyl]-5-methyl-8-(5-methylpyrazin-2-yl)-5,6-dihydrobis[1,2,4]triazolo[4,3-a:3′,4′-c]pyrazine]
6.7 | 126 | – | C[C@H]1Cn2c(-c3cn[nH]c3)nnc2-c2nnc(-c3cccc(C(F)(F)F)c3Cl)n21 [Example 112, (5S)-3-[2-Chloro-3-(trifluoromethyl)phenyl]-5-methyl-8-(1H-pyrazol-4-yl)-5,6-dihydrobis[1,2,4]triazolo[4,3-a:3′,4′-c]pyrazine]
15 | 14.1 | – | C[C@H]1Cn2c(-c3cc(C(F)(F)F)ccn3)nnc2-c2nnc(-c3cccc(C(F)(F)F)c3Cl)n21 [Example 119, (S)-3-[2-chloro-3-(trifluoromethyl)phenyl]-5-methyl-8-(4-(trifluoromethyl)pyridin-2-yl)-5,6-dihydrobis[1,2,4]triazolo[4,3-a:3′,4′-c]pyrazine]
9.3 | 15.8 | – | Cc1ccc(-c2nnc3n2C[C@H](C)n2c(-c4cccc(C(F)(F)F)c4Cl)nnc2-3)s1 [Example 121, (S)-3-[2-chloro-3-(trifluoromethyl)phenyl]-5-methyl-8-(5-methylthiophen-2-yl)-5,6-dihydrobis[1,2,4]triazolo[4,3-a:3′,4′-c]pyrazine]
-4.2 | 3.6 | – | C[C@H]1Cn2c(-c3ccccn3)nnc2-c2nnc(-c3cccc(C(F)(F)F)c3Cl)n21 [Example 124, (S)-3-(2-chloro-3-(trifluoromethyl)phenyl)-5-methyl-8-(pyridin-2-yl)-5,6-dihydrobis([1,2,4]triazolo)[4,3-a:3′,4′-c]pyrazine]
0.1 | 10 | – | C[C@H]1Cn2c(-c3ccc(F)cn3)nnc2-c2nnc(-c3ccc(Cl)cc3Cl)n21 [Example 127, (S)-3-(2,4-dichlorophenyl)-8-(5-fluoropyridin-2-yl)-5-methyl-5,6-dihydrobis([1,2,4]triazolo)[4,3-a:3′,4′-c]pyrazine]
3.8 | 6.3 | – | Cc1c(-c2nnc3n2[C@@H](C)Cn2c(-c4ccc(F)cn4)nnc2-3)cccc1C(F)(F)F [Example 128, (S)-8-(5-fluoropyridin-2-yl)-5-methyl-3-(2-methyl-3-(trifluoromethyl)phenyl)-5,6-dihydrobis([1,2,4]triazolo)[4,3-a:3′,4′-c]pyrazine]
– | 28.2 | 50.7 | FC(F)(F)c1cccc(-c2nnc3n2CCn2c(-c4cnccn4)nnc2-3)c1Cl [Example 132, 3-[2-Chloro-3-(trifluoromethyl)phenyl]-8-pyrazin-2-yl-5,6-dihydrobis[1,2,4]triazolo[4,3-a:3′,4′-c]pyrazine]

Second part, the molecule before the results:

Compound | remaining activity at 10 µM [1] [%] | Ki [2] [nM] | PBMC 1 μM (% control) ([1]; 1 μM compound)
C[C@H]1Cn2c(-c3ccncn3)nnc2-c2nnc(-c3cccc(C(F)(F)F)c3Cl)n21 [Example 111, (5S)-3-[2-Chloro-3-(trifluoromethyl)phenyl]-5-methyl-8-pyrimidin-4-yl-5,6-dihydrobis[1,2,4]triazolo[4,3-a:3′,4′-c]pyrazine] | 6.1 | 10 | –
COc1ccnc(-c2nnc3n2C[C@H](C)n2c(-c4cccc(C(F)(F)F)c4Cl)nnc2-3)c1 [Example 113, (5S)-3-[2-Chloro-3-(trifluoromethyl)phenyl]-8-(4-methoxypyridin-2-yl)-5-methyl-5,6-dihydrobis[1,2,4]triazolo[4,3-a:3′,4′-c]pyrazine] | 5.8 | 8.7 | –
C[C@H]1Cn2c(-c3cnco3)nnc2-c2nnc(-c3cccc(C(F)(F)F)c3Cl)n21 [Example 115, (5S)-3-[2-Chloro-3-(trifluoromethyl)phenyl]-5-methyl-8-(1,3-oxazol-5-yl)-5,6-dihydrobis[1,2,4]triazolo[4,3-a:3′,4′-c]pyrazine] | 2.1 | 43.7 | –
C[C@H]1Cn2c(-c3nccc(C(F)(F)F)n3)nnc2-c2nnc(-c3cccc(C(F)(F)F)c3Cl)n21 [Example 118, (S)-3-[2-chloro-3-(trifluoromethyl)phenyl]-5-methyl-8-(4-(trifluoromethyl)pyrimidin-2-yl)-5,6-dihydrobis[1,2,4]triazolo[4,3-a:3′,4′-c]pyrazine] | 9.9 | 63.1 | –
C[C@H]1Cn2c(-c3ccc(Cl)cn3)nnc2-c2nnc(-c3cccc(C(F)(F)F)c3Cl)n21 [Example 120, (S)-3-[2-chloro-3-(trifluoromethyl)phenyl]-5-methyl-8-(5-chloropyridin-2-yl)-5,6-dihydrobis[1,2,4]triazolo[4,3-a:3′,4′-c]pyrazine] | 7 | 25.1 | –
Cc1ccnc(-c2nnc3n2C[C@H](C)n2c(-c4cccc(C(F)(F)F)c4Cl)nnc2-3)c1 [Example 125, (S)-3-(2-chloro-3-(trifluoromethyl)phenyl)-5-methyl-8-(4-methylpyridin-2-yl)-5,6-dihydrobis([1,2,4]triazolo)[4,3-a:3′,4′-c]pyrazine] | 28.5 | 10.5 | –
C[C@H]1Cn2c(-c3ccc(F)cn3)nnc2-c2nnc(-c3cccc(Cl)c3Cl)n21 [Example 126, (S)-3-(2,3-dichlorophenyl)-8-(5-fluoropyridin-2-yl)-5-methyl-5,6-dihydrobis([1,2,4]triazolo)[4,3-a:3′,4′-c]pyrazine] | -0.5 | 12.6 | –
COc1ccnc(-c2nnc3n2C[C@H](C)n2c(-c4cccc(Cl)c4Cl)nnc2-3)c1 [Example 129, (S)-3-(2,3-dichlorophenyl)-8-(4-methoxypyridin-2-yl)-5-methyl-5,6-dihydrobis([1,2,4]triazolo)[4,3-a:3′,4′-c]pyrazine] | -0.2 | 10 | –
COc1ccnc(-c2nnc3n2C[C@H](C)n2c(-c4ccc(Cl)cc4Cl)nnc2-3)c1 [Example 130, (S)-3-(2,4-dichlorophenyl)-8-(4-methoxypyridin-2-yl)-5-methyl-5,6-dihydrobis([1,2,4]triazolo)[4,3-a:3′,4′-c]pyrazine] | -0.7 | 6.3 | –
COc1ccnc(-c2nnc3n2C[C@H](C)n2c(-c4cccc(C(F)(F)F)c4C)nnc2-3)c1 [Example 131, (S)-8-(4-methoxypyridin-2-yl)-5-methyl-3-(2-methyl-3-(trifluoromethyl)phenyl)-5,6-dihydrobis([1,2,4]triazolo)[4,3-a:3′,4′-c]pyrazine] | 0.7 | 5 | –
